{"source": "paper PMC11980376", "about": "“Lactate dehydrogenase is the Achilles’ heel of Lyme disease bacterium Borreliella burgdorferi” (mBio, 2025)", "key": {"BbLDH [1]": {"target": "T1, BbLDH (Borreliella burgdorferi, UniProt O51114)", "T1 construct": "we expressed and purified a full-length N-terminal His- and FLAG-tagged BB_0087 recombinant protein (rBB_0087); 10xHis (N); FLAG (N); made in house; host or cells: E. coli Rosetta-gami 2 (DE3)", "assay": "Enzyme kinetics of inhibition with varying pyruvate as substrate, 0–100 µM inhibitor", "type": "biochemical", "conditions": "for type of inhibition for pyruvate substrate (Lineweaver–Burk plots): Fig. S7", "description": "The inhibitory effect of gossypol and the four lead inhibitors of BbLDH was performed using 0–100 µM of inhibitors or an equal volume of DMSO vehicle in 50 mM Tris-HCl buffer (pH 7.0) containing 100 ng of BbLDH, 0.5 mM NADH, 2.4 mM pyruvate, and 3 mM FBP at 37°C. All experiments were repeated at least twice. The amount of NADH produced or consumed was extrapolated from the NADH standard curve and plotted in GraphPad Prism 10 (GraphPad Software, La Jolla, CA, USA) using Allosteric Sigmoidal mode to obtain the Vmax and Km values. Lineweaver–Burk plots were generated using the mean reciprocal values of substrates and velocities obtained from the inhibition studies."}, "BbLDH [2]": {"target": "T1, BbLDH", "assay": "Small compound library screening (Natural Products Set IV) for inhibition of BbLDH activity", "type": "biochemical", "conditions": "Extended Data Fig. 7A", "description": "To identify potential novel LDH inhibitors against BbLDH, the Natural Products Set IV library containing 419 natural compounds selected from the DTP Open Repository collection was obtained from the National Cancer Institute (NCI). All compounds were dissolved in DMSO to a working stock solution of 10 mM. Primary screening was performed using a label-free HTS protocol ([54]) in 384-well plates. Buffer B (20 mM Tris pH 7.4, 0.005% Triton X-100, 0.005% BGG, 2 mM DTT) containing 10 nM BbLDH, 75 µM pyruvate, and 50 µM NADH was dispensed into each well containing pre-dispensed inhibitors to a final concentration of 10 µM in 50 µL working volume per well. Fluorescence was measured using an excitation wavelength of 340 nm and an emission wavelength of 482 nm. Readings were recorded every second over a total duration of 5 min. Gossypol and DMSO were included as positive and negative controls, respectively. Fluorescent signals were plotted over time for each compound and analyzed using linear regression to determine the slope of reduction compared to DMSO and gossypol. Twenty-three compounds with a reduced slope in comparison to DMSO were selected for a second round of screening.\nFor the secondary screening, a lactate dehydrogenase activity assay kit (Sigma Aldrich) was used to determine the inhibitory effect of selected small compounds on BbLDH activity. Reactions were performed following the manufacturer’s protocol using 10 and 25 µM of small compounds and 10 nM BbLDH per well. Gossypol and DMSO were included as positive and negative controls, respectively. Compounds that reduced the LDH activity of BbLDH compared to DMSO treatment wells were selected for further analysis."}, "[3]": {"system": "telomerase immortalized gingival keratinocytes (TIGKs)", "assay": "Cell viability, crystal violet assay, 72 h", "type": "cell-based, human", "description": "(§1) Immortalized cervical carcinoma cells (HeLa) and TIGKs were purchased from ATCC. HeLa cells were cultured and maintained in Dulbecco’s Modified Eagle Medium with high glucose and supplemented with 10% FBS and 100 µg/mL of penicillin and streptomycin. TIGK cells were cultured in a serum-free keratinocyte growth medium (KGM; Lifeline Cell Technology, MD) as described previously ([56]). Cells were incubated at 37°C, 5% CO2 incubator.\n(§2) To determine the toxicity of LDH inhibitors on eukaryotic cells, HeLa and TIGK cells were seeded onto a 96-well plate at 10^4 cells per well the day before drug treatment. Cell culture media were removed the next day and replaced with culture media containing the specified concentration of DMSO, gossypol, 45923, or 350085. Mock-treated wells were included for cell viability normalization purposes. Cells were incubated with inhibitors for 72 h. To determine the cell viability, the crystal violet assay was used as described ([57]). Briefly, cell culture media were decanted from the 96-well plate and washed once with water. A volume of 50 µL of 0.5% crystal violet staining solution (0.5 g crystal violet powder, 80 mL ddH2O, 20 mL methanol) were incubated for 20 min at room temperature (RT) with gentle shaking. Plates were washed 4–5 times by soaking in ddH2O followed by gentle tapping to remove any remaining liquid. Plates were air-dried at RT. A 200 µL of methanol was added to each well. The resulting plates were incubated for 20 min at RT with gentle shaking followed by optical density measurement at 570 nm (OD570) using a Varioskan LUX multimode microplate reader (Thermo Fisher Scientific). The OD570 of mock cells was set to 100% and the percentage of viable cells treated with inhibitors was determined by comparing the average OD570 values of treated wells to mock wells. The experiment was performed in triplicate wells with two technical replicates and two biological replicates. Two-way analysis of variance was used for statistical analysis with significant values of P < 0.05."}, "HeLa cells": {"system": "HeLa cells", "assay": "Cell viability, crystal violet assay, 72 h", "type": "cell-based, human", "description": "as §1, §2"}, "B. burgdorferi": {"system": "B. burgdorferi", "assay": "In vitro growth analysis of wild-type B. burgdorferi with inhibitors, Petroff-Hausser counting", "type": "cell-based, Borreliella burgdorferi", "conditions": "0–300 µM tested, BSK-II medium, 34°C", "description": "To measure the growth of the WT B31 A3-68 and 87^mut, 87^mut was first cultivated in the presence of 1 mM IPTG until the stationary phase along with the WT. Cells were harvested via centrifugation and washed with PBS to remove all traces of IPTG. A concentration of 1 × 10^5 cells/mL of WT or 87^mut were inoculated into 10 mL of fresh BSK-II and incubated at 34°C with or without 1 mM IPTG. Bacterial cells were enumerated daily until the cells entered the stationary growth phase (~1 × 10^8 cells/mL) using a Petroff-Hausser counting chamber, as previously described ([100]). At the end of the growth study, cultures were harvested for immunoblot analysis to detect the expression of BbLDH. Growth analyses were repeated in triplicates, and the results were expressed as the means ± standard errors of the means (SEM). To determine the growth inhibition of LDH inhibitors on B. burgdorferi, 10^5 cells/mL of stationary WT cultures were inoculated into a fresh 5 mL BSK-II medium containing the specified concentration of inhibitors. Equal volumes of DMSO were included as negative controls to rule out the inhibitory effect of DMSO on the growth of B. burgdorferi. Cells were maintained at 34°C with a 3.4% CO2 incubator, and cell numbers were enumerated every 2 days until the cells reached the stationary growth phase using the Petroff-Hausser counting chamber."}, "BbLDH [4]": {"target": "T1, BbLDH", "assay": "Enzyme kinetics of inhibition, lactate to pyruvate reaction, NADH read at OD340", "type": "biochemical", "conditions": "Fig. 1F", "description": "The enzyme kinetics of BbLDH, with substrates pyruvate or lactate, was monitored by the reduction or oxidation of NADH at OD340 as previously described ([92]) using a Varioskan LUX multimode microplate reader (Thermo Fisher Scientific, Rockford, IL) with minor modifications. Briefly, the conversion of pyruvate to lactate activity was performed at 37°C in 50 mM Tris-HCl buffer pH 7.0 containing 100 ng of BbLDH, 0.5 mM NADH, 2.4 mM pyruvate and with/without 3 mM FBP. The conversion of lactate to pyruvate activity was measured at 37°C in sodium bicarbonate buffer (pH 7.0) containing 100 ng of BbLDH, 1 mM NAD^+, 0–300 mM sodium L-lactate, with/without 3 mM FBP. The kinetic parameters of BbLDH were determined using 0–6.0 mM pyruvate, 0–1.0 mM NADH, 0–2.0 mM NAD^+, 50 mM Tris-HCl buffer, pH 5.0–10.0, or reaction temperature of 25°C, 30°C, and 37°C. All reactions were performed in 96-well plates with a final volume of 200 µL per well.\nAll experiments were repeated at least twice. The amount of NADH produced or consumed was extrapolated from the NADH standard curve and plotted in GraphPad Prism 10 (GraphPad Software, La Jolla, CA, USA) using Allosteric Sigmoidal mode to obtain the Vmax and Km values. Lineweaver–Burk plots were generated using the mean reciprocal values of substrates and velocities obtained from the inhibition studies."}, "BB_0087 (BbLDH)": {"target": "T2, BB_0087 (BbLDH) (Borreliella burgdorferi, UniProt O51114)", "T2 construct": "we expressed and purified a full-length N-terminal His- and FLAG-tagged BB_0087 recombinant protein (rBB_0087); 10xHis (N); FLAG (N); made in house; host or cells: E. coli Rosetta-gami 2 (DE3)", "assay": "Lactate dehydrogenase activity assay kit, NADH generation from lactate by recombinant BB_0087", "type": "biochemical", "conditions": "100 µM gossypol; 50 ng purified recombinant protein", "description": "To establish the LDH activity of BbLDH, we first used a commercial lactate dehydrogenase activity assay kit (Sigma Aldrich, St. Louis, MO) to measure the ability of BbLDH to reduce NAD to NADH following the manufacturer’s instruction. Commercial LDH inhibitor gossypol (catalog # G8761, Sigma Aldrich) was dissolved in DMSO at a stock concentration of 100 mM. A concentration of 1 µg/µL of recombinant wild-type or H178A BbLDH stocks was diluted 1:20 in the LDH assay buffer to a final working volume of 400 µL per well. A 100 µM of gossypol or DMSO was added to selected wild-type BbLDH wells to determine the inhibitory effect of gossypol on BbLDH activity. Reactions were set up in triplicate wells along with NADH standards. The LDH activity was calculated using the formulation provided by the manufacturer."}}, "data": [{"smiles": "COc1ccc2c(c1)O[C@H]1c3ccc(O)cc3OC[C@@H]21", "note": "(stereo in doubt) [compound 350085, Medicarpin]", "values": [{"measurement": "Ki", "setting": "BbLDH [1]", "value": 205, "unit": "µM"}, {"measurement": "type of inhibition for pyruvate substrate (Lineweaver–Burk plots)", "setting": "BbLDH [1]", "value": "competitive inhibitors"}, {"measurement": "reduction in LDH activity (hit cutoff)", "setting": "BbLDH [2]", "value": "≥ 75", "unit": "%"}, {"measurement": "concentration at which toxicity to TIGKs begins", "setting": "[3]; crystal violet, non-cancerous cell line", "value": 20, "unit": "µM"}, {"measurement": "concentration at which growth inhibition of HeLa cells begins", "setting": "HeLa cells", "value": 5, "unit": "µM"}]}, {"smiles": "CCC(C)(O)C(=O)OC1C(=O)OC2CC3C(C)=CC(O)C(O)C3(C)C3C4(O)OCC23C1C(C)C4O", "note": "(stereo not drawn) [compound 14975]", "values": [{"measurement": "Ki", "setting": "BbLDH [1]", "value": 66, "unit": "µM"}, {"measurement": "type of inhibition for pyruvate substrate (Lineweaver–Burk plots)", "setting": "BbLDH [1]", "value": "competitive inhibitors"}]}, {"smiles": "COc1c2occc2cc2ccc(=O)oc12", "note": "[compound 45923, Methoxsalen]", "values": [{"measurement": "type of inhibition for pyruvate substrate (Lineweaver–Burk plots)", "setting": "BbLDH [1]", "value": "competitive inhibitors"}, {"measurement": "Ki", "setting": "BbLDH [1]; varying pyruvate as substrate, 0.5 mM NADH, 3 mM FBP, pH 7.0, 37°C, Fig. 5, read-out: Ki", "value": 54, "unit": "µM"}, {"measurement": "reduction in LDH activity (hit cutoff)", "setting": "BbLDH [2]", "value": "≥ 75", "unit": "%"}, {"measurement": "concentration at which inhibitory effect on growth was observed", "setting": "B. burgdorferi", "value": 100, "unit": "µM"}, {"measurement": "concentration at which toxicity to TIGKs begins", "setting": "[3]; human", "value": "> 50", "unit": "µM"}, {"measurement": "concentration at which growth inhibition of HeLa cells begins", "setting": "HeLa cells", "value": 10, "unit": "µM"}]}, {"smiles": "CCC(C)c1occ2c(O)c(C(=O)O)c(=O)cc-2c1C", "note": "(stereo not drawn) [compound 114344]", "values": [{"measurement": "Ki", "setting": "BbLDH [1]", "value": 349, "unit": "µM"}, {"measurement": "type of inhibition for pyruvate substrate (Lineweaver–Burk plots)", "setting": "BbLDH [1]", "value": "competitive inhibitors"}, {"measurement": "reduction in LDH activity (hit cutoff)", "setting": "BbLDH [2]", "value": "≥ 75", "unit": "%"}]}, {"smiles": "Cc1cc2c(C(C)C)c(O)c(O)c(C=O)c2c(O)c1-c1c(C)cc2c(C(C)C)c(O)c(O)c(C=O)c2c1O", "note": "[gossypol]", "values": [{"measurement": "Ki", "setting": "BbLDH [1]", "value": 36, "unit": "µM"}, {"measurement": "type of inhibition for pyruvate substrate (Lineweaver–Burk plots)", "setting": "BbLDH [1]", "value": "uncompetitive inhibition"}, {"measurement": "Ki", "setting": "BbLDH [4]", "value": 13, "unit": "µM"}, {"measurement": "concentration at which inhibitory effect on growth was observed", "setting": "B. burgdorferi", "value": 100, "unit": "µM"}, {"measurement": "LDH activity of BB_0087 (NADH generated from lactate) upon treatment", "setting": "BB_0087 (BbLDH)", "value": "completely abolished"}]}]}
